Data reported in PubChem BioAssay AID493102 (Broad Institute, 2011).

Tested on: SK-MEL-5 TRPM1-promoter luciferase reporter, 24 h
Test: TRPM1 promoter luciferase signal decrease, dose response, MITF inhibitor project, cell-based, SK-MEL-5, cherry-picked, set 4 (AID 493102);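 further: actives lower the luciferase signal so the potency reflects inhibition of reporter expression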

`COc1ccc(C(=O)/C=C/C(=O)N(CC(=O)NC2CCCCC2)Cc2ccc(F)cc2)c(O)c1` and `CCOC(=O)/C=c1\s/c(=C\c2ccc3cc(OC)ccc3c2)c(=O)n1CC(=O)NCC1CCCO1` (stereo unspecified) are within 1.5-fold of each other in AC50: 5.45 µM for the first, 5.73 µM for the second.

First: CCOc1ccc(NC(=O)Nc2cccc(C(=O)O)c2)cc1
Second: O=C(NCc1ccccc1)C(=O)Nc1cccc(C(=O)O)c1
The AC50 of the first is 3.2-fold lower: 1.53 µM for the first, 4.85 µM for the second.

Going from `Cc1cccc(N2C(=O)NC(=O)/C(=C\C=C\c3ccco3)C2=O)c1` to `CN1C(=O)/C(=C/c2cccn2-c2ccc3ccccc3c2)C(=O)NC1=S`, the AC50 rises from 5.75 µM to 9.42 µM (1.6-fold).

`Nc1ncnc(Sc2ncccn2)c1[N+](=O)[O-]` and `Cn1nnnc1Sc1ncnc2scc(-c3ccsc3)c12` are within 1.5-fold of each other in AC50: 11.7 µM for the first, 7.95 µM for the second.

Compared with `CCC[n+]1c(C)sc2c3c(ccc21)CCCC3`, `Cc1cc(-n2c(SCC(=O)NCCC3=CCCCC3)nc3n[nH]c(C)c3c2=N)ccc1Cl` is 1.7-fold higher in AC50: 9.87 µM for the first, 17.1 µM for the second.

`O=C1c2cc(F)ccc2-n2c1nc1ccccc1c2=O` and `Cc1ccc(C(=O)Nc2cnc3ccccc3c2)cc1` are within 1.5-fold of each other in AC50: 1.05 µM for the first, 1.15 µM for the second.

`OCC1OC(n2cnc3c(NCc4ccco4)ncnc32)C(O)C1O` (stereo unspecified) and `CCCCCCn1c(=O)c(C(=O)Nc2cnccn2)c(O)c2ccccc21` are within 1.5-fold of each other in AC50: 3.88 µM for the first, 3.68 µM for the second.

`CCc1ccccc1NC(=O)CN(C)C(=O)Cn1ncc(Cl)c(Cl)c1=O` and `O=C(Cn1ncc(Cl)c(Cl)c1=O)Nc1ccc2c(c1)OCO2` are within 1.5-fold of each other in AC50: 11 µM for the first, 13.2 µM for the second.

`COc1ccc(C(=O)C(CN2CCOCC2)c2ccccc2)cc1` (stereo unspecified) and `COc1ccc(N(Cc2cc(=O)[nH]c3ccccc23)C(=O)CCl)cc1` are within 1.5-fold of each other in AC50: 7.29 µM for the first, 10.9 µM for the second.

First: CCOC(=O)CSC1=NC(=O)/C(=C\c2ccc(OC(C)=O)cc2)S1
Second: CCOc1ccc(C(=O)Nc2cccc(C(=O)O)c2C)cc1Cl
The AC50 of the first is 1.7-fold lower: 5.13 µM for the first, 8.56 µM for the second.

First: O=C(CCl)Nc1cn(-c2ccccc2)nc1-c1ccccc1
Second: C/C(=N\NC(=O)COc1ccccc1-c1ccccc1)c1ccccn1
The AC50 of the first is 3.2-fold higher: 14.5 µM for the first, 4.58 µM for the second.

`CC1=CC2/C=C(\C)CCC(O)C(O)/C=C/C(=O)C23C(=O)NC(CC(C)C)C3C1C` (stereo unspecified) and `Cc1ccc(-n2nnnc2CNC(=O)c2ccc([N+](=O)[O-])o2)cc1C` are within 1.5-fold of each other in AC50: 6.58 µM for the first, 9.72 µM for the second.

First: COCCn1c(C)cc(C(=O)CSc2nnc(C)s2)c1C
Second: CCCCn1c(=N)n(CCOc2ccc(C)cc2)c2ccccc21
The AC50 of the first is 3.7-fold lower: 3.04 µM for the first, 11.3 µM for the second.

First: Cc1ccc(NC(=O)Cn2ncc(Cl)c(Cl)c2=O)cc1S(=O)(=O)N1CCCCC1
Second: Cc1ccc(NC(=O)c2ccc([N+](=O)[O-])s2)cc1S(=O)(=O)N1CCOCC1
The AC50 of the first is 3.6-fold higher: 13.7 µM for the first, 3.78 µM for the second.

Compared with `COc1cc(/C=N/NS(=O)(=O)c2ccc3ccccc3c2)ccc1OCc1ccc(C(=O)O)cc1`, `COc1ccc(S(=O)(=O)Nc2ccc(O)c3ccccc23)cc1` is 1.9-fold higher in AC50: 4.78 µM for the first, 9.07 µM for the second.

First: CCCCN1CCc2c1nc1ccc(Br)cc1c2N
Second: Nc1ccc(-c2nc3ccc(C(=O)O)cc3s2)cc1
The AC50 of the first is 14-fold higher: 12.2 µM for the first, 0.866 µM for the second.

Going from `CCOC(=O)c1ccc(NC(=O)c2nc(S(=O)(=O)Cc3ccccc3)ncc2Cl)cc1` to `O=C(CCCc1ccccc1)Nc1cccc(C(=O)O)c1`, the AC50 falls from 9.92 µM to 4.42 µM (2.2-fold).

Going from `COc1cc([N+](=O)[O-])cc(/C=N/NC(=O)c2ccc(NC(=O)c3ccc(C)cc3)cc2)c1O` to `O=C(Nc1ccc(N2CCN(C(=O)c3ccccc3)CC2)cc1)c1ccc([N+](=O)[O-])o1`, the AC50 rises from 1.55 µM to 17.9 µM (12-fold).

`Cc1oc(-c2ccc(Cl)cc2)nc1CN1CCC(C(=O)NCCCN2CCCC(C)C2)CC1` (stereo unspecified) and `O=C1Nc2cc(C(=O)NCCN3CCCCCC3)ccc2S/C1=C\c1ccccc1` are within 1.5-fold of each other in AC50: 13.2 µM for the first, 9.78 µM for the second.

First: CN=c1scc(-c2ccccc2F)n1/N=C/c1ccc[nH]1
Second: Cn1nnnc1Sc1ncnc2scc(-c3ccc(F)cc3)c12
The AC50 of the first is 430-fold lower: 0.019 µM for the first, 8.1 µM for the second.

`CN1CCC(N(C)C(=O)/C=C/c2cn(-c3ccccc3)nc2-c2cccs2)CC1` and `CCCCN(C)CC(O)Cn1cc(/C=C/C(=O)c2cccs2)c2ccccc21` (stereo unspecified) are within 1.5-fold of each other in AC50: 9.82 µM for the first, 14.3 µM for the second.

Going from `N=c1n(Cc2ccc(Cl)cc2)c2ccccc2n1CC(O)COc1ccccc1` (stereo unspecified) to `N=c1n(CC(=O)c2ccc([N+](=O)[O-])cc2)c2ccccc2n1Cc1ccccc1`, the AC50 falls from 9.25 µM to 4.83 µM (1.9-fold).

`O=C(CNC(=O)c1cccc(F)c1)N/N=C/c1ccc([N+](=O)[O-])s1` and `CNC(=O)COC(=O)c1ccccc1C(=O)c1ccc(Cl)c([N+](=O)[O-])c1` are within 1.5-fold of each other in AC50: 7.45 µM for the first, 9.77 µM for the second.

Going from `FC(F)(F)c1cc(CCN2CCNC[C@@H]2Cc2ccccc2)cc(C(F)(F)F)c1` to `Cc1ccc(-c2c[n+](Cc3ccc(Cl)c(Cl)c3)c3n2CCC3)cc1`, the AC50 falls from 12.3 µM to 3.73 µM (3.3-fold).

`O=C(Nc1ccc(OC(=O)N2CCCCC2)cc1)N1CCOCC1` and `CC(=O)Nc1ccc(S(=O)(=O)N2CCn3cccc3C2C)cc1` (stereo unspecified) are within 1.5-fold of each other in AC50: 27.4 µM for the first, 28.7 µM for the second.

First: COc1ccc(-n2cc(-c3ccc(C)cc3)[n+]3c2SCC3)cc1
Second: CN(C)S(=O)(=O)c1ccc(-c2csc(N/N=C/c3ccc(O)cc3)n2)cc1
The AC50 of the first is 1.6-fold lower: 2.91 µM for the first, 4.6 µM for the second.

`Cc1ccc2nc3cc([N+](=O)[O-])cc([N+](=O)[O-])c3cc2c1` and `CCn1c(=O)c([N+](=O)[O-])c(Cl)c2ccccc21` are within 1.5-fold of each other in AC50: 8.46 µM for the first, 7.2 µM for the second.

Going from `O=C(O)c1ccc(N/N=C/c2ccc3nccnc3c2)cc1` to `CC(=O)N1CCc2c(sc(NC(=O)c3ccc([N+](=O)[O-])o3)c2C#N)C1`, the AC50 rises from 0.696 µM to 2.22 µM (3.2-fold).
